Patent US8633224B2, “Hemiasterlin derivatives and uses thereof in the treatment of cancer” (Eisai Co., Ltd., priority 2002, dated 2014)

Tested on: human cancer cells
Assay: in vitro and in vivo screening panel (growth inhibition, MDR, cytotoxicity, mouse serum stability, mitotic block reversibility, tumor xenograft)
Settings: properties (i)-(vii) of b364/b365
Experimental: In certain embodiments, compounds of the invention were tested for in vitro and in vivo activity. Screening methods included standard in vitro cell growth inhibition assays using a panel of human cancer cell lines, a U937 (ATCC accession number CRL 1593) mitotic block reversibility assay, mouse serum stability assay, MDR assay, and cytotoxicity assay. In certain other embodiments, compounds of the invention were evaluated in tumor xenograft in vivo growth inhibition assays.
Cultured human cancer cells (including breast, prostate, colon, lung, leukemia, lymphoma and other) were plated in 96-well plates and grown in the continuous presence of test compounds for 72 or 96 hours. The human cell lines used in this cell growth inhibition assay, include, but are not limited to, the following solid tumor cell lines and non-solid tumor cell lines: DLD-1 colon cancer cells (ATCC accession number CCL-221), DU 145 prostate cancer cells (ATCC accession number HTB-81), H460 non small cell lung cancer, HCT-15 colon cancer cells (ATCC accession number CCL-225), HEL erythroleukemia cells, HL-60 promyelocytic leukemia cells (ATCC accession number CCL-240), K562 leukemia (ATCC accession number CCL-243), LOX melanoma, MDA-MB-435 breast cancer cells, U937 lymphoma cells (ATCC accession number CRL 1593), PANC-1 pancreatic cancer (ATCC accession number CRL-1469), HCC-2998 colon cancer (NCI-Frederick Cancer DCTD Tumor/Cell Line Repository), HCT 116 colon cancer (ATCC accession number CCL-247), HT-29 colon cancer (ATCC accession number HTB-38), LoVo colon cancer (ATCC accession number CCL-229), SW-480 colon cancer (ATCC accession number CCL-228), SW-620 colon cancer (ATCC accession number CCL-227) and COLO-205 colon cancer (ATCC accession number CCL-222). For monolayer cultures, growth was assessed using modifications (Amin et al, Cancer Res., 47: 6040-6045, 1987) of a methylene blue-based microculture assay (Finlay et al, Anal. Biochem., 139: 272-277, 1984). Absorbances at 620 and 405 nm were measured on a Titertek Multiscan MCC/340 plate reader and absorbances at 405 nm were subtracted from absorbances at 620 nm. For suspension cultures, growth was assessed using a 3-(4,5-dimethylthiazol-2-yl)-2,5-diphenyl tetrazolium bromide-based assay (Mosmann et al, J. Immunol. Methods, 65: 55-63, 1983) modified as follows. After 4 days of incubation with test compounds, sterile-filtered 3-(4,5-dimethylthiazol-2-yl)-2,5-diphenyl tetrazolium bromide was added to each well (final concentration, 0.5 mg/ml), and plates were incubated at 37° C. for 4 h. Acid-isopropanol (0.1 N HCl in isopropanol, […]) was then added to each well, and the resultant formazan crystals were dis-solved by gentle mixing. Absorbances at 540 nm were measured on a Titertek Multiscan MCC/340 plate reader.
Briefly, U937 (ATCC accession number […]) were exposed to various concentration of compounds for 12 hours. The compounds were washed away and the cells were allowed to recover for an additional 10 hours. The cells were collected by centrifugation and fixed overnight in 70% ethanol. The cells were washed in PBS, incubated with RNase A and stained with propidium iodide. Single channel flow cytometry was performed on a Becton Dickinson FACScan; the collection and analysis of data were performed using Becton Dickinson CELLQuest software. Doublet events were eliminated from analyses by proper gating on FL2-W/FL2-A primary plots before histogram analysis of DNA content (measured as FL2-A).
This is a modification of the standard cell growth inhibition assays described above. Two cultured human cancer cell lines were used: human uterine sarcoma MDR negative MES-SA cells (ATCC accession number CRL-1976) and human uterine sarcoma MDR-positive MES-SA/Dx5 cells (ATCC accession number CRL-1977). Cells were plated in a 96-well microtiter plates at a density of 7500 cells/well. The cells were incubated in the presence or absence of test compounds for 96 hours.

SMILES	desired properties (growth inhibition IC50, resistance ratio, cytotoxicity in non-dividing normal cells, mouse serum stability, mitotic block reversibility, tumor regression, tumor growth inhibition)
C/C(=C\[C@H](C(C)C)N(C)C(=O)[C@@H](NC(=O)[C@H]1CCCCN1C(C)C(C)C)C(C)(C)C)C(=O)O (single isomer, unassigned) [ER-808662]	exhibiting desired properties
CCC(C)N1CCCCC1C(=O)NC(C(=O)N(C)[C@H](/C=C(\C)C(=O)O)C(C)C)C(C)(C)C (stereo in doubt) [ER-808368]	exhibiting desired properties
CCC(C)N1CCCCC1C(=O)NC(C(=O)N(C)[C@H](/C=C(\C)C(=O)O)C(C)C)C(C)C (stereo in doubt) [ER-808824]	exhibiting desired properties
CN[C@H](C(=O)N[C@H](C(=O)N(C)[C@H](/C=C(\C)C(=O)N1CCC[C@H]1C(=O)OC)C(C)C)C(C)(C)C)C(C)(C)c1ccccc1 [ER-805736]	exhibiting desired properties
CN[C@H](C(=O)N[C@H](C(=O)N(C)[C@H](/C=C(\C)C(=O)O)C(C)C)C(C)(C)C)C(C)(C)c1ccc(OCc2ccccc2)cc1 [ER-805913]	exhibiting desired properties
CN[C@H](C(=O)N[C@H](C(=O)N(C)[C@H](CN(C)CC(=O)N1CCC[C@H]1C(=O)OC)C(C)C)C(C)(C)C)C(C)(C)c1ccccc1 [ER-806925]	exhibiting desired properties
C/C(=C\[C@H](C(C)C)N(C)C(=O)[C@@H](NC(=O)[C@@H]1CCCCN1C)C(C)(C)C)C(=O)O [ER-807102]	exhibiting desired properties
CN[C@H](C(=O)N[C@H](C(=O)N(C)[C@H](CN1CCC[C@H]1C(=O)N1CCC[C@H]1C(N)=O)C(C)C)C(C)(C)C)C(C)(C)c1ccccc1 [ER-807328]	exhibiting desired properties
CCC(CC)(NC)C(=O)N[C@H](C(=O)N(C)[C@H](/C=C(\C)C(=O)O)C(C)C)C(C)(C)C [ER-807850]	exhibiting desired properties
CC(C)OC(=O)[C@@H]1CCCN1C(=O)[C@@H]1CCCN1C[C@H](C(C)C)N(C)C(=O)[C@@H](NC(=O)[C@H]1CCCCN1C)C(C)(C)C [ER-807904]	exhibiting desired properties
C/C(=C\[C@H](C(C)C)N(C)C(=O)[C@@H](NC(=O)[C@H]1CCCCN1C(C)C)C(C)(C)C)C(=O)O [ER-807974]	exhibiting desired properties

Tested on: human lung carcinoma, human colon carcinoma and human melanoma
Assay: not given
Settings: cited from earlier work

SMILES	antitumor activity against several cell lines
CN[C@H](C(=O)N[C@H](C(=O)N(C)[C@H](/C=C(\C)C(=O)O)C(C)C)C(C)(C)C)C(C)(C)c1cn(C)c2ccccc12 [Hemiasterlin]	exhibited antitumor activity
